# Test results reported in patent US9212151B2, “Heterocyclic compounds useful for kinase inhibition” (Amitech Therapeutic Solutions, Inc., priority 2010, dated 2015).
# Assay: MTT cell viability assay, compounds at 5, 1 and 0.2 μM, 48 hours
# Assay type: cell-based
# Conditions: human, A549 tumor cells
# In short: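 A549 cells were seeded at 2500/well in DMEM + 10% FBS, grown overnight, then exposed to compound for 48 h. Viability was read by MTT (5 mg/ml, 4 h), with formazan dissolved in DMSO and absorbance measured at 560/570 nm to give survival rate.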
Compound,"viability at 48 h, 0.2 µM (0.2 μM) [%]","viability at 48 h, 1 µM (1 μM) [%]","viability at 48 h, 5 µM (5 μM) [%]","viability at 48 h, 0.2 µM (0.2 μM compound) [%]","viability at 48 h, 1 µM (1 μM compound) [%]","viability at 48 h, 5 µM (5 μM compound) [%]"
CC(C)(C)Sc1cc(Oc2cccc(-c3nnc(Nc4cccc(C(F)(F)F)c4)[nH]3)c2)nc(N)n1 [Compound 151],> 70,> 70,> 70,,,
Nc1cc(Oc2cccc(-c3nnc(Nc4cccc(C(F)(F)F)c4)[nH]3)c2)nc(N)n1 [Compound 13],> 70,> 70,50 to 70,,,
CCc1nc(N)cc(Oc2ccc(-c3nnc(Nc4cccc(C(F)(F)F)c4)[nH]3)cc2)n1 [Compound 81],> 70,50 to 70,< 50,,,
NS(=O)(=O)c1cnccc1Oc1cccc(-c2nnc(Nc3cccc(C(F)(F)F)c3)[nH]2)c1 [Compound 19],> 70,> 70,> 70,,,
FC(F)(F)c1cccc(Nc2nnc(-c3ccc(Oc4ccncc4)cc3Cl)[nH]2)c1 [Compound 111],> 70,> 70,> 70,,,
O=[N+]([O-])c1cc(F)cc(Oc2ccc(-c3nnc(Nc4cccc(C(F)(F)F)c4)[nH]3)cc2)c1 [Compound 147],> 70,> 70,50 to 70,,,
CSc1nc(N)cc(Oc2ccc(-c3cnc(Nc4cccc(C(F)(F)F)c4)[nH]3)cc2)n1 [Compound 199],,,,< 50,< 50,< 50
FC(F)(F)c1cccc(Nc2nnc(-c3ccc(Oc4ncnc5[nH]ccc45)cc3)o2)c1 [Compound 32],> 70,> 70,> 70,,,
FC(F)(F)c1cccc(Nc2nnc(-c3cccc(Oc4ccnc5cc(Cl)ccc45)c3)[nH]2)c1 [Compound 167],> 70,> 70,> 70,,,
Nc1cc(Oc2ccc(-c3nnc(Nc4cccc(C(F)(F)F)c4)[nH]3)cc2)nc(NCCO)n1 [Compound 61],> 70,> 70,> 70,,,
Nc1cc(Oc2cccc(-c3nnc(Nc4cccc(C(F)(F)F)c4)o3)c2)nc(N)n1 [Compound 35],> 70,> 70,> 70,,,
CSc1nc(N)cc(Oc2ccc(-c3nnc(Nc4cc(C)cc(C)c4)[nH]3)cc2)n1 [Compound 123],< 50,< 50,< 50,,,
CSc1nc(N)cc(Oc2ccc(-c3nnc(Nc4cc(C(C)(C)C)nn4-c4cccc(C)c4)[nH]3)cc2)n1 [Compound 139],> 70,> 70,> 70,,,
COc1cc2ncnc(Oc3cccc(-c4nnc(Nc5cccc(C(F)(F)F)c5)[nH]4)c3)c2cc1OC [Compound 170],> 70,> 70,> 70,,,
Cc1cc(Oc2ccc(-c3nnc(Nc4cccc(C(F)(F)F)c4)[nH]3)cc2)c2ccccc2n1 [Compound 158],> 70,> 70,50 to 70,,,
CCc1cc(Oc2ccc(-c3nnc(Nc4cccc(C(F)(F)F)c4)[nH]3)cc2)nc(N)n1 [Compound 77],> 70,50 to 70,50 to 70,,,
FC(F)(F)c1cccc(Nc2nnc(-c3ccc(Oc4ccnc(Cl)c4)cc3)o2)c1 [Compound 30],> 70,> 70,50 to 70,,,
CCOc1nc(N)cc(Oc2ccc(-c3nnc(Nc4cccc(C(F)(F)F)c4)[nH]3)cc2)n1 [Compound 79],> 70,< 50,< 50,,,
CCOc1cc(Oc2cccc(-c3nnc(Nc4cccc(C(F)(F)F)c4)[nH]3)c2)nc(N)n1 [Compound 57],> 70,> 70,> 70,,,
NCCSc1nc(N)cc(Oc2ccc(-c3nnc(Nc4cccc(C(F)(F)F)c4)[nH]3)cc2)n1 [Compound 62],> 70,> 70,> 70,,,
C[S+]([O-])c1nc(N)cc(Oc2ccc(-c3nnc(Nc4cccc(C(F)(F)F)c4)[nH]3)cc2)n1 (stereo not drawn) [Compound 63],> 70,> 70,50 to 70,,,
FC(F)(F)c1cccc(Nc2nnc(-c3ccc(Oc4cc(C(F)(F)F)nc5ccccc45)cc3)[nH]2)c1 [Compound 159],> 70,> 70,50 to 70,,,
[2H]C([2H])([2H])Oc1cc(Oc2ccc(-c3nnc(Nc4cccc(C(F)(F)F)c4)[nH]3)cc2)nc(N)n1 [Compound 142],> 70,> 70,> 70,,,
CSc1nc(N)cc(Oc2ccc(-c3nnc(Nc4ccc5c(c4)CCC5)[nH]3)cc2)n1 [Compound 124],> 70,> 70,< 50,,,
